Data as given in PubChem BioAssay AID328 (DTP/NCI, 2004).
Where “and” joins values, the source holds several entries; their conditions need not be identical. Equal entries are not always repeated. Inconclusive results and toxic doses are left out.

Test system: BDF1 mice, P388 leukemia ip, median survival T/C
Assay: NCI In Vivo Anticancer Drug Screen. Data for tumor model P388 Leukemia (intraperitoneal) in B6D2F1 (BDF1) mice
Conditions: endpoint: median survival time, higher = longer survival
Summary of the method: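 In tumour-bearing mice, survival after compound treatment is set against the vehicle group and given as a quotient.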

[1] = dose: 12.5 mg/kg/injection, schedule: Q01DX009 (ip), vehicle: Klucel (hydroxypropylcellulose) (HPC)
[2] = dose: 50.0 mg/kg/injection, schedule: Q01DX009 (ip), vehicle: saline with Tween-80
[3] = dose: 100.0 mg/kg/injection, schedule: Q01DX009 (ip), vehicle: saline with Tween-80
[4] = dose: 100.0 mg/kg/injection, schedule: Q04DX003 (ip), vehicle: saline with Tween-80
[5] = dose: 200.0 mg/kg/injection, schedule: Q01DX009 (ip), vehicle: saline with Tween-80
[6] = dose: 200.0 mg/kg/injection, schedule: Q04DX003 (ip), vehicle: saline with Tween-80
[7] = dose: 400.0 mg/kg/injection, schedule: Q01DX009 (ip), vehicle: saline with Tween-80
[8] = dose: 400.0 mg/kg/injection, schedule: Q04DX003 (ip), vehicle: saline with Tween-80
[9] = dose: 100.0 mg/kg/injection, schedule: Q04DX003 (ip), vehicle: Klucel (hydroxypropylcellulose) (HPC)
[10] = dose: 100.0 mg/kg/injection, schedule: Q01DX001 (ip), vehicle: saline with Tween-80
[11] = dose: 200.0 mg/kg/injection, schedule: Q01DX001 (ip), vehicle: saline with Tween-80
[12] = dose: 25.0 mg/kg/injection, schedule: Q01DX009 (ip), vehicle: Klucel (hydroxypropylcellulose) (HPC)
[13] = dose: 50.0 mg/kg/injection, schedule: Q01DX009 (ip), vehicle: Klucel (hydroxypropylcellulose) (HPC)
[14] = dose: 50.0 mg/kg/injection, schedule: Q01DX009 (ip), vehicle: saline
[15] = dose: 100.0 mg/kg/injection, schedule: Q01DX009 (ip), vehicle: saline
[16] = dose: 200.0 mg/kg/injection, schedule: Q01DX009 (ip), vehicle: saline
[17] = dose: 200.0 mg/kg/injection, schedule: Q04DX003 (ip), vehicle: Klucel (hydroxypropylcellulose) (HPC)

With CC(=O)[O][Hg][c]1c(C)c(C)c(C)c(C)c1C the T/C (dose: 3.12 mg/kg/injection, schedule: Q01DX009 (ip), vehicle: Klucel (hydroxypropylcellulose) (HPC)) was 98 % of control, the T/C (dose: 6.25 mg/kg/injection, schedule: Q01DX009 (ip), vehicle: Klucel (hydroxypropylcellulose) (HPC)) was 109 % of control and the T/C [1] was 90 % of control and 107 % of control.

In the case of O=[N+]([O-])c1cc([N+](=O)[O-])c2ccccc2c1NS(=O)(=O)c1ccc(Cl)c(Cl)c1, the T/C [2] is reported as 92 % of control and the T/C [3] is reported as 111 % of control.

With O=C1c2ccccc2C(=O)N1OC1CCCCO1 (stereo not given) the T/C [3] was 91 % of control, the T/C [4] was 100 % of control and the T/C [5] was 87 % of control. For the same molecule, the T/C [6] was 108 % of control, the T/C [7] was 100 % of control and the T/C [8] was 104 % of control.

For CN(C=C(C#N)C#N)c1ccccc1, the T/C [2] was 105 % of control.

CN(C)S(=O)(=O)c1ccccc1C(O)(c1ccccc1)c1ccccc1 was tested, and the T/C [4] was 99 % of control, the T/C [6] was 116 % of control and the T/C [8] was 91 % of control.

For CNC(=S)ON1CCCCC1, the T/C [2] was 116 % of control, the T/C [3] was 114 % of control and the T/C [5] was 121 % of control.

In the case of c1ccc(C2OC2c2ccccc2)cc1 (stereo not given), the T/C (dose: 50.0 mg/kg/injection, schedule: Q04DX003 (ip), vehicle: Klucel (hydroxypropylcellulose) (HPC)) is reported as 89 % of control, the T/C (dose: 75.0 mg/kg/injection, schedule: Q01DX009 (ip), vehicle: Klucel (hydroxypropylcellulose) (HPC)) is reported as 90 % of control and the T/C [9] is reported as 89 % of control. For the same molecule, the T/C (dose: 150.0 mg/kg/injection, schedule: Q01DX009 (ip), vehicle: Klucel (hydroxypropylcellulose) (HPC)) was 104 % of control and the T/C (dose: 300.0 mg/kg/injection, schedule: Q01DX009 (ip), vehicle: Klucel (hydroxypropylcellulose) (HPC)) was 104 % of control.

With Cc1ccc(C(=S)NC(=O)Nc2ccccc2)cc1 the T/C (dose: 50.0 mg/kg/injection, schedule: Q01DX001 (ip), vehicle: saline with Tween-80) was 93 % of control, the T/C [10] was 92 % of control and the T/C [11] was 90 % of control.

With CC1(C(N)=O)CCCC2(C)c3ccccc3CCC12 (stereo not given) the T/C [4] was 100 % of control, the T/C [6] was 104 % of control and the T/C [8] was 100 % of control.

With COc1cc(/C=C(/C)[N+](=O)[O-])ccc1O the T/C (dose: 12.5 mg/kg/injection, schedule: Q01DX009 (ip), vehicle: carboxymethylcellulose (CMC)) was 118 % of control, the T/C (dose: 18.75 mg/kg/injection, schedule: Q01DX009 (ip), vehicle: Klucel (hydroxypropylcellulose) (HPC)) was 121 % of control and the T/C [12] was 103 % of control and 112 % of control. For the same molecule, the T/C [13] was 116 % of control, the T/C [14] was 122 % of control and the T/C (dose: 50.0 mg/kg/injection, schedule: Q04DX003 (ip), vehicle: saline) was 109 % of control. The T/C (dose: 100.0 mg/kg/injection, schedule: Q01DX009 (ip), vehicle: Klucel (hydroxypropylcellulose) (HPC)) was 114 % of control, the T/C [15] was 92 % of control and the T/C (dose: 100.0 mg/kg/injection, schedule: Q04DX003 (ip), vehicle: saline) was 113 % of control. The T/C (dose: 200.0 mg/kg/injection, schedule: Q01DX009 (ip), vehicle: Klucel (hydroxypropylcellulose) (HPC)) was 114 % of control, the T/C [16] was 122 % of control and the T/C (dose: 200.0 mg/kg/injection, schedule: Q04DX003 (ip), vehicle: saline) was 118 % of control.

For Cc1ccc(NCN2C(=O)NC(c3ccccc3)(c3ccccc3)C2=O)cc1, the T/C [10] was 90 % of control and the T/C [11] was 95 % of control.

For C[N+]1(Cc2c[nH]c3ccsc23)CCCCC1, the T/C (dose: 3.0 mg/kg/injection, schedule: Q01DX009 (ip), vehicle: saline with Tween-80) was 87 % of control, the T/C (dose: 3.0 mg/kg/injection, schedule: Q04DX003 (ip), vehicle: saline with Tween-80) was 104 % of control and the T/C (dose: 6.0 mg/kg/injection, schedule: Q01DX009 (ip), vehicle: saline with Tween-80) was 91 % of control. The T/C (dose: 6.0 mg/kg/injection, schedule: Q04DX003 (ip), vehicle: saline with Tween-80) was 104 % of control, the T/C (dose: 12.0 mg/kg/injection, schedule: Q01DX009 (ip), vehicle: saline with Tween-80) was 100 % of control and the T/C (dose: 12.0 mg/kg/injection, schedule: Q04DX003 (ip), vehicle: saline with Tween-80) was 100 % of control.

For O=C1Nc2ccc(Br)cc2C1=Nc1ccc2c(c1)OCO2, the T/C [2] was 113 % of control, the T/C [3] was 111 % of control and the T/C [5] was 108 % of control. For the same molecule, the T/C [7] was 111 % of control.

For O=[N+]([O-])c1ccc(N/N=C/c2ccccn2)cc1, the T/C [9] was 104 % of control, the T/C [17] was 100 % of control and the T/C (dose: 400.0 mg/kg/injection, schedule: Q04DX003 (ip), vehicle: Klucel (hydroxypropylcellulose) (HPC)) was 109 % of control.

For O=c1[nH]c(SCc2ccc([N+](=O)[O-])cc2)nc2ccccc12, the T/C [9] was 95 % of control and the T/C [17] was 90 % of control.

In the case of CCCC(C)(C)c1cc(C(C)C)cc(C(C)(C)CCC)c1O, the T/C (dose: 12.5 mg/kg/injection, schedule: Q01DX009 (ip), vehicle: other) is reported as 112 % of control, the T/C (dose: 25.0 mg/kg/injection, schedule: Q01DX009 (ip), vehicle: other) is reported as 118 % of control and the T/C (dose: 50.0 mg/kg/injection, schedule: Q01DX009 (ip), vehicle: other) is reported as 97 % of control.

For CCN(CC)Cc1nccn1-c1ccc([N+](=O)[O-])cc1C(=O)c1ccccc1Cl, the T/C [14] was 100 % of control and the T/C [15] was 118 % of control.

In the case of COC(=O)CS(=O)(=O)C(C)(C)C(=O)c1ccccc1, the T/C (dose: 75.0 mg/kg/injection, schedule: Q01DX001 (ip), vehicle: other) is reported as 100 % of control, the T/C (dose: 150.0 mg/kg/injection, schedule: Q01DX001 (ip), vehicle: other) is reported as 120 % of control and the T/C (dose: 300.0 mg/kg/injection, schedule: Q01DX001 (ip), vehicle: other) is reported as 110 % of control.

For CC1=CC23C(=O)[C@@H](C=C(COC(=O)c4ccccc4)[C@@H](O)[C@]2(O)[C@H]1OC(=O)c1ccccc1)[C@H]1[C@@H](C[C@H]3C)C1(C)C, the T/C (dose: 7.0 micrograms/kg/injection, schedule: Q01DX009 (ip), vehicle: saline with Tween-80) was 197 % of control, the T/C (dose: 8.0 micrograms/kg/injection, schedule: Q01DX009 (ip), vehicle: saline + alcohol) was 110 % of control and the T/C (dose: 11.0 micrograms/kg/injection, schedule: Q01DX009 (ip), vehicle: saline with Tween-80) was 107 % of control. The T/C (dose: 13.0 micrograms/kg/injection, schedule: Q01DX009 (ip), vehicle: saline + alcohol) was 108 % of control, the T/C (dose: 19.0 micrograms/kg/injection, schedule: Q01DX009 (ip), vehicle: saline with Tween-80) was 113 % of control and the T/C (dose: 21.0 micrograms/kg/injection, schedule: Q01DX009 (ip), vehicle: saline + alcohol) was 110 % of control. For the same molecule, the T/C (dose: 31.0 micrograms/kg/injection, schedule: Q01DX009 (ip), vehicle: saline with Tween-80) was 113 % of control, the T/C (dose: 35.0 micrograms/kg/injection, schedule: Q01DX009 (ip), vehicle: saline + alcohol) was 110 % of control and the T/C (dose: 52.0 micrograms/kg/injection, schedule: Q01DX009 (ip), vehicle: saline with Tween-80) was 124 % of control. For the same molecule, the T/C (dose: 59.0 micrograms/kg/injection, schedule: Q01DX009 (ip), vehicle: saline + alcohol) was 107 % of control, the T/C (dose: 86.0 micrograms/kg/injection, schedule: Q01DX009 (ip), vehicle: saline with Tween-80) was 109 % of control and the T/C (dose: 98.0 micrograms/kg/injection, schedule: Q01DX009 (ip), vehicle: saline + alcohol) was 100 % of control. For the same molecule, the T/C (dose: 144.0 micrograms/kg/injection, schedule: Q01DX009 (ip), vehicle: saline with Tween-80) was 113 % of control and the T/C (dose: 240.0 micrograms/kg/injection, schedule: Q01DX009 (ip), vehicle: saline with Tween-80) was 157 % of control.

CN(C)N=Nc1ccc(NC(N)=O)cc1 was tested, and the T/C (dose: 25.0 mg/kg/injection, schedule: Q04DX003 (ip), vehicle: saline + Tween-80 + alcohol) was 112 % of control.

For CCCCN(C(=O)C(F)(F)F)C(C)(C)C(SSSC(c1ccc(Cl)cc1)C(C)(C)N(CCCC)C(=O)C(F)(F)F)c1ccc(Cl)cc1 (stereo not given), the T/C [3] was 100 % of control, the T/C [4] was 100 % of control and the T/C [5] was 100 % of control. The T/C [6] was 100 % of control, the T/C [7] was 100 % of control and the T/C [8] was 118 % of control.

In the case of O=C(CCl)Nc1ccc([As](=O)(O)O)cc1, the T/C [1] is reported as 100 % of control, the T/C [12] is reported as 100 % of control and the T/C [13] is reported as 90 % of control.

In the case of CS(=O)(=O)c1nc(N)nc2nc[nH]c12, the T/C (dose: 75.0 mg/kg/injection, schedule: Q04DX003 (ip), vehicle: saline) is reported as 104 % of control, the T/C [15] is reported as 115 % of control and the T/C (dose: 150.0 mg/kg/injection, schedule: Q04DX003 (ip), vehicle: saline) is reported as 100 % of control. The T/C [16] was 105 % of control and the T/C (dose: 300.0 mg/kg/injection, schedule: Q04DX003 (ip), vehicle: saline) was 109 % of control.
